Assays:
[1] = system: rat C6 glioma cells; assay: RT-PCR of cell cycle regulator mRNA in C6 glioma cells; assay type: cell-based; details: GAPDH internal control (Fig. 3)
Experimental: For the rat C6 glioma cells, the cell cycle related to mRNA expression was examined by RT-PCR. The total RNAs were isolated from the treated C6 cells by using the RNeasy Mini Kit (Qiagen) according to the manufacturer's instructions. The cDNAs were produced from 500ng of total RNAs using ReverTra-Plus-TM (TOYOBO). The RT product (1µl) was amplified by PCR with primers to analyze several genes of cell cycle by using GAPDH as an internal control. According to the results of Fig. 3, NBM-HD-1 can modulate the expression of some cell cycle regulators. […] On the contrary, the expression of p21 was increased.

[2] = system: rat C6 glioma cells; assay: Cell cycle analysis of C6 glioma cells, DNA content by PI staining and FACScan cytometry; assay type: cell-based; details: 0, 2.5, 5 and 10 µg/mL, 72 hours (Fig. 2)
Experimental: 1×10^6 of rat C6 glioma cells were treated with various concentrations of NBM-HD-1 (0 µg/mL, 2.5 µg/mL, 5 µg/mL, and 10 µg/mL) for 72 hours. The treated cells were trysinized and collected. The cells were resuspended in 200 µL PBS and then fixed by adding 800 µL of cold 100% ethanol. The resulting cells were fixed overnight at -20[…]. The cell pellets were collected by centrifugation, resuspended in 1 mL of hypotonic buffer (0.5% Triton X-100 in PBS and 1 µg/mL RNase A), and incubated at 37 °C for 30 minutes. Then, 1 mL of PI solution (50 µg/mL) was added to the resulting cell pellets. The mixture was allowed to stand at 4[…] for 30 min. The DNA amounts of the cells were analyzed by FACScan Cytometry (Becton Dickinson) (see Fig. 2).

[3] = system: cortical neurons; assay: Neurite outgrowth of cortical neurons cultivated from fetal rat neural stem cells; assay type: cell-based, Wistar rat; details: 0.63 µg/mL
Experimental: The growth medium for the NSCs (neural stem cells) and cortical neurons was prepared by adding penicillin G, streptomycin and 0.5 mM of L-glutamine into a B-27 supplemented neurobasal medium (Gibco). The unborn fetus was taken out of the fetal sac in the abdominal cavity of a 17-day pregnant Wistar rat under anesthesia. The cerebral tissue was removed from the fetus and treated with 0.1 % trypsin solution at 25 °C for three minutes. After washing with PBS solution 3 times, the cells were dissociated by up and down mixing. The resulting solution was passed through a 70µm Nylon cell strainer (Falcon) in order to obtain the filtrate that contained cerebral cells. The filtrate was centrifuged at 1000 rpm for 10 minutes and the supernatant was aspirated. The resulting pellet was resuspended in the growth medium prepared as stated above. The resulting suspension contained NSCs.
The cells obtained from the suspension were cultivated in 6-well plates coated with 30 µg/ml of poly-D-lysine (Sigma) at the density of 75 cells/mm^2. The cells were cultured at 37 °C, 5% CO2 and 95% relative humidity. The growth media contained 0.63 µg/mL of NBM-HD-1 and the growth media with 1 µl of DMSO was used as the control. […]
After cultivation for 6 days, live cells were observed by microscope. The lengths of the neurites of the neurons in 6 different fields were measured and averaged. […]

[4] = system: rat C6 glioma cells; assay: Inhibition of growth of rat C6 glioma cells (observation and cell counting); assay type: cell-based; details: 2.5, 5 and 10 µg/mL, 48 hours; cell density and cell counting (Fig. 1)
Experimental: The cancer cell line, rat C6 glioma cells, was cultured in Dulbecco's modified Eagle's medium (DMEM; Gibco) supplemented with penicillin G, streptomycin sulphate, 0.5 mM of L-glutamine and 10% fetal bovine serum (FBS; Gibco) at 37 °C, 5% CO2 and 95% relative humidity. For all experiments, the cells were seeded at a density of 3×10^5 per well in 6-well plates. After 24 hours, the cells were treated with different concentrations of the compound NBM-HD-1 (i.e., the compound of formula III depicted herein). After 48 hours, the cells were observed and counted. According to the results shown in Fig. 1, NBM-HD-1 can arrest the growth of rat C6 glioma cells. After the C6 glioma cells were incubated with 2.5 µg/mL (see Fig. 1(A)-b), 5 µg/mL (see Fig. 1(A)-c) and 10 µg/mL (see Fig. 1(A)-d) of NBM-HD-1 for 48 hours, the density of the cells reduced dramatically in comparison with that of control (see Fig. 1(A)-a).

[5] = system: acetylated histone H4; assay: Western blotting of hyperacetylated histone H4 in C6 glioma cell lysates; assay type: cell-based, rat; details: C6 glioma cells
Experimental: Accumulation of hyperacetylated histone H4 was analyzed in the cell lysates by using Western Blotting and the antibody directed against acetylated histone H4 (Upstate). The C6 glioma cells were seeded at a density of 1×10^6 per 10cm culture dish. After 24 hours, the cells were treated with 10 µg/mL of NBM-HD-1 or 4mM sodium butyrate for several hours. The whole-cell lysates were prepared by using denaturing SDS sample buffer and then separated on 15% SDS-polyacrylamide gels. […] The amount of acetylated histones was hardly detectable in untreated C6 glioma cells. The amount of acetylated histone H4 of the cells treated with 4mM sodium butyrate for 2 hours increased. Sodium butyrate was then removed from the culture medium. After 6 hours, the amount of acetylated histone H4 decreased. The accumulation of acetylated histone H4 increased in the cells treated with NBM-HD-1 for 2 hours. […] The highest histone acetylation appeared at 6 hours after the compound had been removed. […] Because NBM-HD-1 is more hydrophobic than sodium butyrate, NBM-HD-1 can be retained in the cells longer than sodium butyrate and continuously induce the acetylation of histone H4.

COc1cc2c(c(OC)c1CCC(C)(C)O)C(=O)C[C@@H](c1ccc(OC)c(OC)c1C/C=C(\C)CCCC(C)(C)O)O2 [NBM-HD-1]
expression of cyclinB1 [1]: decrease the expression of cyclinD1 and cyclinB1 in a dose-dependent manner | expression of cyclinD1 [1]: decrease the expression of cyclinD1 and cyclinB1 in a dose-dependent manner | expression of p21 [1]: increased | cell cycle (DNA contents) [2]: cell cycle arrest on the G0/G1 phase in a dose-dependent manner | average length of the neurites ([3]; 6 days, 6 different fields, versus DMSO control (Fig. 12(B))): greater than that of the control group | neurite outgrowth ([3]; cultivation for 6 days (Fig. 12)): could promote the neurite outgrowth | growth of C6 glioma cells [4]: can inhibit the growth of C6 glioma cells in a dose-dependent manner | accumulation of acetylated histone H4, treated for 2 hours ([5]; 10 µg/mL NBM-HD-1 or 4mM sodium butyrate, 2 hours (Fig. 5)): increased | time of highest histone acetylation after the compound had been removed ([5]; 10 µg/mL, 2 hours treatment, then removal): 6 h | amount of acetylated histone H4 after removal of the compound from the culture medium ([5]; up to 6 hours after removal (Fig. 5)): increased over time

Source: patent publication EP2045247B1, “Compounds for the inhibition of histone deacetylase” (NatureWise Biotech & Medicals Corporation, priority 2007, dated 2009)
